Reference: the supplement of paper PMC13380429

What was measured:
[1] = test system: A549-ACE2 infected with SARS-CoV-2; assay: morphology score (similarity to uninfected cells); higher = more like uninfected cells; conditions: 24 h
[2] = test system: A549-ACE2 infected with SARS-CoV-2; assay: SARS-CoV-2 infection rate relative to DMSO; higher = more infection; conditions: 24 h
[3] = test system: HepG2; assay: cell viability relative to DMSO; higher = less toxic; conditions: 72 h
[4] = test system: Caco-2; assay: as above; conditions: 72 h
[5] = test system: Calu-3; assay: as above; conditions: 72 h
[6] = test system: U2OS; assay: as above; conditions: 72 h
[7] = test system: Vero E6; assay: as above; conditions: 72 h
[8] = test system: A549-ACE2; assay: drug-induced phospholipidosis relative to tamoxifen; higher = more phospholipidosis
[9] = test system: A549-ACE2 infected with SARS-CoV-2; assay: cell count relative to DMSO; higher = less toxic; conditions: 24 h
[10] = test system: HepG2; assay: drug sensitivity score (DSS) for viability; higher = more toxic; extreme values may be limits of the assay; conditions: 72 h
[11] = test system: Caco-2; assay: as above; conditions: 72 h
[12] = test system: Calu-3; assay: as above; conditions: 72 h
[13] = test system: U2OS; assay: as above; conditions: 72 h
[14] = test system: Vero E6; assay: as above; conditions: 72 h
[15] = test system: HepG2; assay: relative viability EC50 (midpoint between 100% and the lowest measured viability); higher = less toxic; conditions: 72 h
[16] = test system: Calu-3; assay: as above; conditions: 72 h
[17] = test system: U2OS; assay: as above; conditions: 72 h
[18] = test system: Vero E6; assay: as above; conditions: 72 h
[19] = test system: Caco-2; assay: as above; conditions: 72 h

COC(=O)C[C@](O)(CCC(C)(C)O)C(=O)O[C@@H]1C(OC)=C[C@]23CCCN2CCc2cc4c(cc2[C@H]13)OCO4 [harringtonine]
Conditions	SARS-CoV-2 infection rate, [2] [%]	cell count, [9] [%]	cell viability, [3] [%]	cell viability, [4] [%]	cell viability, [5] [%]	cell viability, [6] [%]	cell viability, [7] [%]	morphology score, [1]
1 nM	–	–	103	108	93.2	95.9	105	–
10 nM	–	–	108	94.6	98.7	99.2	100	–
100 nM	–	–	45.7	73.5	81	46.8	109	–
0.3 µM	5	92	–	–	–	–	–	0.57
1000 nM	–	–	11.1	56.3	34.9	11	34.2	–
3 µM	21	62	–	–	–	–	–	0.26
10 µM	12	50	–	–	–	–	–	0.27
10000 nM	–	–	0.3	53.6	24.9	0.9	9.1	–
30 µM	33	37	–	–	–	–	–	0.29

[8], 24 h
Conditions	drug-induced phospholipidosis [%]
0.3 µM	0.19
0.833333 µM	-6.78

Conditions	drug sensitivity score	relative viability EC50 [µM]
[10]	24.5	–
[11]	11.3	–
[12]	14.3	–
[13]	23.5	–
[14]	12.6	–
[15]	–	0.0934
[16]	–	0.233
[17]	–	0.0946
[18]	–	0.686

c1cnc2c([O][Ga]([O]c3cccc4cccnc34)[O]c3cccc4cccnc34)cccc2c1 [gallium-triquinolin-8-olate]
Conditions	SARS-CoV-2 infection rate, [2] [%]	cell count, [9] [%]	cell viability, [3] [%]	cell viability, [4] [%]	cell viability, [5] [%]	cell viability, [6] [%]	cell viability, [7] [%]	morphology score, [1]
1 nM	–	–	96.5	94.3	95.9	97	116	–
10 nM	–	–	102	104	111	105	103	–
100 nM	–	–	118	89.1	97.6	100	106	–
0.3 µM	98	103	–	–	–	–	–	0.25
1000 nM	–	–	97.1	116	110	102	102	–
3 µM	50	73	–	–	–	–	–	0.64
10 µM	23	69	–	–	–	–	–	0.75
10000 nM	–	–	2.2	6.6	51.7	19.7	87.7	–
30 µM	23	35	–	–	–	–	–	0.35

drug-induced phospholipidosis [%], [8]
Conditions	0.3 µM	0.833333 µM	3.33333 µM
24 h	3.04	1.03	-5.09
48 h	1.4	-0.94	–
72 h	3.03	0.0941	–

Conditions	drug sensitivity score	relative viability EC50 [µM]
[10]	5.8	–
[11]	4.3	–
[12]	2	–
[13]	4.2	–
[14]	0	–
[15]	–	2.96
[17]	–	3.34
[18]	–	> 10
[19]	–	3.85

C=CC[N+]1([C@H]2C[C@H]3[C@@H]4CC[C@H]5C[C@H](O)[C@@H](N6CCOCC6)C[C@]5(C)[C@H]4CC[C@]3(C)[C@H]2OC(C)=O)CCCC1 [ROCURONIUM BROMIDE]
cell viability [%]
Conditions	[3]	[4]	[5]	[6]	[7]
1 nM	97.7	104	98.1	106	91
10 nM	113	103	105	99.3	95.1
100 nM	108	107	107	103	89.5
1000 nM	111	132	94.9	103	88.5
10000 nM	108	79.8	105	108	95.6

Conditions	drug sensitivity score	relative viability EC50 [µM]
[10]	0	–
[11]	0.2	–
[12]	0	–
[13]	0	–
[14]	0	–
[15]	–	> 10
[16]	–	> 10
[17]	–	> 10
[18]	–	> 10
[19]	–	> 10

CC1(C)CNc2cc(NC(=O)c3cccnc3NCc3ccncc3)ccc21 [motesanib]
cell viability [%]
Conditions	[3]	[4]	[5]	[6]	[7]
1 nM	95.9	94.6	111	103	97.3
10 nM	94	95.5	99.6	96.7	102
100 nM	97.4	96.8	110	97.9	94.9
1000 nM	93.5	92.1	110	98.9	94
10000 nM	84.9	93.2	108	96.8	96.9

Conditions	drug sensitivity score	relative viability EC50 [µM]
[10]	0.1	–
[11]	0	–
[12]	0	–
[13]	0	–
[14]	0	–
[15]	–	> 10
[16]	–	> 10
[17]	–	> 10
[18]	–	> 10
[19]	–	> 10

CC(C)[C@H](N)C(=O)OCCOCn1cnc2c(=O)nc(N)[nH]c21 [valaciclovir]
cell viability [%]
Conditions	[3]	[4]	[5]	[6]	[7]
1 nM	103	103	103	94	90.1
10 nM	92.5	96	98.8	101	92
100 nM	104	104	88.4	96	86.5
1000 nM	99.5	99.4	111	105	86.1
10000 nM	101	104	90.3	110	105

Conditions	drug sensitivity score	relative viability EC50 [µM]
[10]	0	–
[11]	0	–
[12]	0	–
[13]	0	–
[14]	0	–
[15]	–	> 10
[16]	–	> 10
[17]	–	> 10
[18]	–	> 10
[19]	–	> 10

COc1ccc(C2(O)CCC(N3CC[C@@H](NC(=O)CNC(=O)c4cccc(C(F)(F)F)c4)C3)CC2)cn1 (stereo partly specified)
cell viability [%]
Conditions	[3]	[4]	[5]	[6]	[7]
1 nM	94.8	100	102	99.7	97.7
10 nM	97.7	95.3	92.8	98.5	97.8
100 nM	101	95.3	96.3	98.6	97.7
1000 nM	94.8	100	97.7	99.4	95.8
10000 nM	102	94.8	95.2	100	97.6

Conditions	drug sensitivity score	relative viability EC50 [µM]
[10]	0	–
[11]	0	–
[12]	0	–
[13]	0	–
[14]	0	–
[15]	–	> 10
[16]	–	> 10
[17]	–	> 10
[18]	–	> 10
[19]	–	> 10

CCCCN(CCCC)C(=O)CN1C[C@H](c2ccc3c(c2)OCO3)[C@@H](C(=O)O)[C@@H]1c1ccc(OC)cc1 [atrasentan]
cell viability [%]
Conditions	[3]	[4]	[5]	[6]	[7]
1 nM	106	101	98.7	94.4	104
10 nM	104	99.8	94.6	94.4	105
100 nM	92.6	98.3	114	102	98.8
1000 nM	104	88.3	104	94.5	98.8
10000 nM	97.6	99.3	109	106	104

Conditions	drug sensitivity score	relative viability EC50 [µM]
[10]	0	–
[11]	0	–
[12]	0	–
[13]	0	–
[14]	0	–
[15]	–	> 10
[16]	–	> 10
[17]	–	> 10
[18]	–	> 10
[19]	–	> 10

COc1ccc(C2C(=O)c3ccccc3C2=O)cc1 [anisindione]
cell viability [%]
Conditions	[3]	[4]	[5]	[6]	[7]
1 nM	107	101	112	101	95.1
10 nM	111	93.8	106	97.8	92.1
100 nM	105	100	108	102	94.7
1000 nM	108	98.3	95.7	106	89.5
10000 nM	94.7	95.3	108	105	105

Conditions	drug sensitivity score	relative viability EC50 [µM]
[10]	0	–
[11]	0	–
[12]	0	–
[13]	0	–
[14]	0	–
[15]	–	> 10
[16]	–	> 10
[17]	–	> 10
[18]	–	> 10
[19]	–	> 10

C#C[C@]1(O)CC[C@H]2[C@@H]3CCC4=CC(=O)CCC4=C3C=C[C@@]21CC [gestrinone]
cell viability [%]
Conditions	[3]	[4]	[5]	[6]	[7]
1 nM	96.7	107	106	94.7	96.6
10 nM	103	116	93.3	95.8	97.2
100 nM	101	86.1	99.9	91.6	101
1000 nM	103	102	97.8	99.9	89.3
10000 nM	90.6	101	94.1	93.9	101

Conditions	drug sensitivity score	relative viability EC50 [µM]
[10]	0	–
[11]	0	–
[12]	0	–
[13]	0	–
[14]	0	–
[15]	–	> 10
[16]	–	> 10
[17]	–	> 10
[18]	–	> 10
[19]	–	> 10

O=C(C[S+]([O-])Cc1ccco1)NC/C=C\COc1cc(CN2CCCCC2)ccn1 (stereo unspecified) [lafutidine]
cell viability [%]
Conditions	[3]	[4]	[5]	[6]	[7]
1 nM	98.3	91.5	91.4	99.3	101
10 nM	95.4	91.3	106	100	100
100 nM	97.9	97.6	95.6	96.9	100
1000 nM	105	97	93.2	102	93.5
10000 nM	104	90.6	92.3	94.8	96.1

Conditions	drug sensitivity score	relative viability EC50 [µM]
[10]	0	–
[11]	0	–
[12]	0	–
[13]	0	–
[14]	0	–
[15]	–	> 10
[16]	–	> 10
[17]	–	> 10
[18]	–	> 10
[19]	–	> 10
